This note sets out measurements from PubChem BioAssay AID624167 (Sanford-Burnham Center for Chemical Genomics, 2012).

The source made the active and inactive calls.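 How the source made its calls: active means mean IC50 for reducing PEG3 promoter reporter signal at or below a set limit, with IC50 above the limit in both counter screens; inactive means the rest, including counter screen hits.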 Some results are limits rather than exact numbers.

Assay [1] addresses PEG-3 (UniProt Q6IN02). Kind of assay: inhibition of PEG-3 promoter-driven reporter – cell-based, HeLa, luciferase, CREF/GAPDH counter-screen panel, dose response (AID 624167). The conditions noted are these: HeLa PEG-Prom luciferase reporter, overnight, CREF/GAPDH counter-screens, mean of runs.
The subject of a further assay is Rat fibroblasts (CREF). The description is as above. The settings on record: CREF/GAPDH counter-screens. A general note: The purpose of a counterscreen is to sort out artefacts and off-target activity.
Another assay relates to GAPDH. Described as above. The conditions noted are these: CREF/GAPDH counter-screens.
For assay [2], the system named is PEG-3. Described as above. The settings on record: HeLa PEG-Prom luciferase reporter, overnight, CREF/GAPDH counter-screens.
Test in assay [3]: as above
The conditions noted are these: CREF/GAPDH counter-screens; GAPDH; mean of runs.

Setting [4] is: run 1, dose range 1, individual replicate IC50 per panel.
Where [5] appears, read: run 2, dose range 1, individual replicate IC50 per panel.

Chain of PEG-3 (UniProt Q6IN02) (Q6IN02 whole entry, looked up): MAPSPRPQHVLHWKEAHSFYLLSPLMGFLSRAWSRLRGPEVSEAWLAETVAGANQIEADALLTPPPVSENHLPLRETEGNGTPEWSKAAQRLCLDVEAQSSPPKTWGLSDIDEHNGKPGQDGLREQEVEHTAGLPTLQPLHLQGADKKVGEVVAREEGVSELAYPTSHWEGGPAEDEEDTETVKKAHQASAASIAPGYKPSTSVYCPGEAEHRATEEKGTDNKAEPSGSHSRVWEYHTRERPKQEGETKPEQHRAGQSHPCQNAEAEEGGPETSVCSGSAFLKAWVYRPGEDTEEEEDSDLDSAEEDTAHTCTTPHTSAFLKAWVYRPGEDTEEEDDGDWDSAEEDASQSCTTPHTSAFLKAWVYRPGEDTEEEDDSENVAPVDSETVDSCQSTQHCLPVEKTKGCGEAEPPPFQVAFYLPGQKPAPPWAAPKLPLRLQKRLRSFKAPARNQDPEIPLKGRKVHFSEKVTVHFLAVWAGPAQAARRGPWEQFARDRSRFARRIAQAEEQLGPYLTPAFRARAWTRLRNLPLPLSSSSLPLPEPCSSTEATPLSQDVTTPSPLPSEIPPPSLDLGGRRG

As to `CS(=O)(=O)Nc1cccc(NC(=O)C2Cc3c(-c4ccccc4)ccnc3O2)c1` (centres undefined), the IC50 on PEG-3 [1] was 7.38 µM; in the assay on Rat fibroblasts (CREF) (mean of runs) it was > 100 µM (inactive); with Rat fibroblasts (CREF) (setting [4]), more than 100 µM; in the assay with Rat fibroblasts (CREF) (setting [5]) it was more than 100 µM; with GAPDH (setting [4]), more than 100 µM; in the assay on GAPDH (setting [5]), 86.7 µM. Moreover, the IC50 in the assay on PEG-3 [2] (setting [4]) is 7.17 µM; in the assay with PEG-3 [2] (setting [5]) it was 7.59 µM. The IC50 result in assay [3] was “inactive”.

As to `OCCCNc1nccc(-c2cc(Nc3cccc(Cl)c3)ncn2)n1`, the IC50 was 0.497 µM on PEG-3 [1]; 59.6 µM (inactive) in the assay with Rat fibroblasts (CREF) (mean of runs); 19.1 µM with Rat fibroblasts (CREF) (setting [4]); more than 100 µM in the assay with Rat fibroblasts (CREF) (setting [5]); more than 100 µM with GAPDH (setting [4]); 0.913 µM in the assay with GAPDH (setting [5]). Further, the IC50 was 0.661 µM in the assay on PEG-3 [2] (setting [4]) and 0.333 µM in the assay with PEG-3 [2] (setting [5]). Also, the IC50 result in assay [3] is “inactive”.

In the case of `O=[N+]([O-])c1nn(-c2ccc3c(c2)OCCO3)n(O)c1=Nc1ccc(Cl)cc1`, the IC50 at PEG-3 [1] was 0.673 µM; with Rat fibroblasts (CREF) (mean of runs), > 100 µM (inactive); in the assay on Rat fibroblasts (CREF) (setting [4]) it was more than 100 µM; with Rat fibroblasts (CREF) (setting [5]), more than 100 µM; with GAPDH (setting [4]), 2.94 µM; in the assay with GAPDH (setting [5]), 7.41 µM. Moreover, the IC50 was 1.07 µM in the assay on PEG-3 [2] (setting [4]), 0.271 µM with PEG-3 [2] (setting [5]) and 5.17 µM in assay [3].

On to `CCOC(=O)c1c(SCCN2CCCCC2)n(-c2ccccc2)c(=S)n(-c2ccccc2)c1=O`, for which the IC50 on PEG-3 [1] is 7.28 µM; in the assay with Rat fibroblasts (CREF) (mean of runs) it was 13.6 µM; with Rat fibroblasts (CREF) (setting [4]), 12.9 µM; with Rat fibroblasts (CREF) (setting [5]), 14.4 µM; in the assay with GAPDH (setting [4]), 18.8 µM; with GAPDH (setting [5]), 18.8 µM. Also, the IC50 in the assay with PEG-3 [2] (setting [4]) is 10.1 µM; with PEG-3 [2] (setting [5]), 4.4 µM; in assay [3], 18.8 µM.

Take `CC(C)(C)c1ccc(Cn2c(=O)cnc3ccccc32)cc1`: the IC50 result at PEG-3 [1] was “inactive”. Further, the IC50 with Rat fibroblasts (CREF) (mean of runs) is 51 µM (inactive); with Rat fibroblasts (CREF) (setting [4]) it was more than 100 µM; with Rat fibroblasts (CREF) (setting [5]), 1.93 µM; in the assay with GAPDH (setting [4]), 5.99 µM; in the assay on GAPDH (setting [5]), 6.44 µM; in the assay on PEG-3 [2] (setting [4]) it was 5.23 µM. In addition, the results for the IC50 (with PEG-3 [2] (setting [5]); in assay [3]) were more than 100 µM and 6.22 µM, respectively.

For `CN1C/C(=C/c2ccccc2[N+](=O)[O-])C(=O)/C(=C\c2ccccc2[N+](=O)[O-])C1`, the half-maximal inhibitory concentration (IC50) is 5.91 µM at PEG-3 [1]; 27.4 µM in the assay with Rat fibroblasts (CREF) (mean of runs); 30 µM in the assay with Rat fibroblasts (CREF) (setting [4]); 24.9 µM in the assay with Rat fibroblasts (CREF) (setting [5]); more than 100 µM in the assay on GAPDH (setting [4]); 79.4 µM in the assay with GAPDH (setting [5]). The IC50 in the assay on PEG-3 [2] (setting [4]) is 5.67 µM; in the assay with PEG-3 [2] (setting [5]), 6.14 µM. For the same compound, the IC50 entry in assay [3] was “inactive”.

Consider `CCCC(=O)NC(c1ccc(N(C)C)cc1)c1ccc2cccnc2c1O` (centres undefined), for which the IC50 at PEG-3 [1] is 1.75 µM; with Rat fibroblasts (CREF) (mean of runs), 72.3 µM (inactive); with Rat fibroblasts (CREF) (setting [4]), more than 100 µM; in the assay with Rat fibroblasts (CREF) (setting [5]) it was 44.7 µM; in the assay with GAPDH (setting [4]) it was more than 100 µM; in the assay on GAPDH (setting [5]) it was more than 100 µM. Also, the IC50 is 2.74 µM in the assay on PEG-3 [2] (setting [4]), 0.758 µM in the assay on PEG-3 [2] (setting [5]) and > 100 µM (inactive) in assay [3].

For `Cc1oc(-c2ccc3c(c2)OCCO3)cc1C(=O)O`, the IC50 on PEG-3 [1] was 3.93 µM; in the assay with Rat fibroblasts (CREF) (mean of runs), 34.2 µM; in the assay on Rat fibroblasts (CREF) (setting [4]), 31.2 µM; with Rat fibroblasts (CREF) (setting [5]), 37.3 µM; in the assay on GAPDH (setting [4]), 4.06 µM; in the assay on GAPDH (setting [5]), 6.29 µM. The IC50 with PEG-3 [2] (setting [4]) is 3.12 µM; with PEG-3 [2] (setting [5]), 4.73 µM; in assay [3] it was 5.18 µM.

For `CCCn1nc(C(=O)Nc2nc(-c3ccccn3)cs2)c2ccccc2c1=O`, the IC50 at PEG-3 [1] is 7.73 µM; in the assay with Rat fibroblasts (CREF) (mean of runs) it was > 100 µM (inactive); with Rat fibroblasts (CREF) (setting [4]), more than 100 µM; in the assay with Rat fibroblasts (CREF) (setting [5]), more than 100 µM; in the assay with GAPDH (setting [4]) it was more than 100 µM; in the assay with GAPDH (setting [5]) it was 80.9 µM. The IC50 in the assay with PEG-3 [2] (setting [4]) was found to be 7.15 µM; in the assay on PEG-3 [2] (setting [5]) it was 8.31 µM. In assay [3], the IC50 entry is “inactive”.

`COC1CC(C)C(OC)c2cc(O)cc(c2O)NC(=O)C(C)=CC=CC(C)C(OC(N)=O)C(C)=CC(C)C1OC` (centres undefined): the IC50 at PEG-3 [1] was 13.8 µM; in the assay with Rat fibroblasts (CREF) (mean of runs), > 100 µM (inactive); with Rat fibroblasts (CREF) (setting [4]), more than 100 µM; with Rat fibroblasts (CREF) (setting [5]), more than 100 µM; in the assay with GAPDH (setting [4]), 45.1 µM; in the assay with GAPDH (setting [5]), 45.7 µM. Moreover, the IC50 with PEG-3 [2] (setting [4]) was 22.2 µM; in the assay with PEG-3 [2] (setting [5]) it was 5.41 µM. In assay [3], the IC50 entry is “inactive”.

Consider `CN(O)C(=S)c1ccccc1`, for which, at PEG-3 [1], the IC50 result is “inactive”. The IC50 with Rat fibroblasts (CREF) (mean of runs) was > 100 µM (inactive); in the assay on Rat fibroblasts (CREF) (setting [4]) it was more than 100 µM; in the assay with Rat fibroblasts (CREF) (setting [5]), more than 100 µM; with GAPDH (setting [4]) it was more than 100 µM; with GAPDH (setting [5]), more than 100 µM; in the assay on PEG-3 [2] (setting [4]), 10.3 µM. Moreover, the figures for the IC50 (in the assay with PEG-3 [2] (setting [5]); in assay [3]) were 42.5 µM and > 100 µM (inactive), respectively.

A word on the IC50: it is the midpoint of a concentration-inhibition curve.
